In brackets after ≈: the same amount, converted by molar mass. Where two headings read alike, the source gives them in different places.
Tests used:
[1] = Proliferation of uninfected mouse embryo fibroblasts (MEF); assay type: cell-based; settings: mouse, mouse embryo fibroblasts; calculated on dose-effects lines; uninfected MEF, 3 days treatment; read-out: MEF proliferation ID 50 (Inhibiting Dose 50%)
Procedure: (§1) Mouse embryo fibroblasts (MEF) were plated on 35 mm. Falcon plastic dishes and infected 24 hours later with Moloney Sarcoma Virus (MSV) in the presence of DEAE-dextran (25 μg./ml.). The samples were then treated for 3 days with different concentrations of the compounds of the invention. The number of foci of transformed cells was microscopically determined 5 days after the infection. Uninfected MEF were similarly treated and at the end of the experiment, the cells were counted in an haemocytometer. In all the experiments, the cells were incubated in a 5% CO2 incubator at 37° C.
(§2) For use in these tests the compounds were dissolved in distilled water or in 5% ethyl alcohol in distilled water and then diluted in culture medium.

Mouse Embryo Fibroblasts = test: as above; assay type: cell-based; settings: Mus musculus, Fibroblast, 72 h, read-out: MEF No. of cells; for activity at 0.1 µg/mL: dose 0.1 μg/ml; for activity at 0.4 µg/mL: dose 0.4 μg/ml
Procedure: as §1, §2

[2] = tested on: Moloney Sarcoma Virus (MSV); test: Inhibition of MSV-M foci formation in mouse embryo fibroblasts; assay type: cell-based; settings: Fibroblast, 120 h; for IC50: read-out: MSV-M foci ID 50 (Inhibiting Dose 50%); for activity at 0.1 µg/mL: dose 0.1 μg/ml; for activity at 0.4 µg/mL: dose 0.4 μg/ml
Procedure: as §1, §2
The results of these tests are reported in Table I in terms of ID50 values (Inhibiting Dose 50%), calculated on dose-effects lines.

[3] = Antitumor activity and toxicity on ascites Sarcoma 180 in CD 1 mice; assay type: in vivo; settings: mouse, in vivo, ip, read-out: % Toxic Deaths
Procedure: (§3) The antitumor activity of the compounds of the invention was tested on ascites Sarcoma 180.
(§4) Three month old CD 1 mice were used. Sarcoma 180 ascites cells were inoculated intraperitoneally (10^6 cells/mouse). For use in these tests, the compounds were dissolved in distilled water or in 5% ethyl alcohol in distilled water, then diluted with Ringers solution and administered i.p. 1 day after the tumor implant (10 ml./kg. of body weight).
(§5) The toxicity of the test compounds was evaluated by macroscopic autoptic examination mainly in terms of reduction in spleen size. The comparison of the effectiveness of the test compounds is based on the maximum increase in median survival time, as compared to untreated controls, over the dose range used. The number of Long Term Survivors (LTS) refers to tumor-free mice at the end of the experiment (60 days). Solid Sarcoma 180 was implanted subcutaneously by trocar in the flank of CD 1 mice according to standard methods. The mice were treated i.v. for 5 consecutive days, starting 1 day after the tumor implant. On the 11th day the tumor volume was measured by means of a caliper and evaluated according to the formula (a^2 × b)/2, a and b being the minimum and the maximum diameters respectively.

ascites Sarcoma 180 = test: as above; assay type: in vivo; settings: for % LTS: 60 days; for LTS (Long Term Survivors after 60 days): survivors/total; for Toxic Deaths: deaths/total
Procedure: as §3, §4, §5

[4] = dose 0.0062 μg/ml, uninfected MEF, 3 days treatment
[5] = dose 0.0250 μg/ml, uninfected MEF, 3 days treatment
[6] = uninfected MEF, 3 days treatment
[7] = calculated on dose-effects lines, 3 days treatment
[8] = dose 0.0062 μg/ml, 3 days treatment, foci counted 5 days after infection, read-out: MSV-M No. of foci
[9] = dose 0.0250 μg/ml, 3 days treatment, foci counted 5 days after infection, read-out: MSV-M No. of foci
[10] = 3 days treatment, foci counted 5 days after infection, read-out: MSV-M No. of foci
[11] = 0.2 mg./kg. i.p. 1 day after tumor implant
[12] = 1 mg./kg. i.p. 1 day after tumor implant
[13] = 5 mg./kg. i.p. 1 day after tumor implant
[14] = 12.5 mg./kg. i.p. 1 day after tumor implant
[15] = 25 mg./kg. i.p. 1 day after tumor implant
[16] = 50 mg./kg. i.p. 1 day after tumor implant
[17] = 10 mg./kg. i.p. 1 day after tumor implant

Compound | IC50 at 72 h [1] [µg/mL] | activity at 0.0062 µg/mL (Mouse Embryo Fibroblasts; [4]) [%] | activity at 0.025 µg/mL (Mouse Embryo Fibroblasts; [5]) [%] | activity at 0.1 µg/mL (Mouse Embryo Fibroblasts; [6]) [%] | activity at 0.4 µg/mL (Mouse Embryo Fibroblasts; [6]) [%] | IC50 [2, 7] [µg/mL] | mortality ([3]; 0.2 mg./kg. i.p.) [%] | mortality ([3]; 1 mg./kg. i.p.) [%] | mortality ([3]; 5 mg./kg. i.p.) [%] | % LTS (ascites Sarcoma 180; [11]) [%] | LTS (Long Term Survivors after 60 days) (ascites Sarcoma 180; [11]) | Toxic Deaths (ascites Sarcoma 180; 0.2 mg./kg. i.p.) | T/C (median survival time, % over untreated controls) (ascites Sarcoma 180; [12]) [%] | % LTS (ascites Sarcoma 180; [12]) [%] | LTS (Long Term Survivors after 60 days) (ascites Sarcoma 180; [12]) | Toxic Deaths (ascites Sarcoma 180; 1 mg./kg. i.p.) | T/C (median survival time, % over untreated controls) (ascites Sarcoma 180; [13]) [%] | % LTS (ascites Sarcoma 180; [13]) [%] | LTS (Long Term Survivors after 60 days) (ascites Sarcoma 180; [13]) | Toxic Deaths (ascites Sarcoma 180; 5 mg./kg. i.p.) | also measured
COc1cccc2c1C(=O)c1c(O)c3c(c(O)c1C2=O)C[C@@](O)(C(=O)CN1CCCCC1)C[C@@H]3O[C@H]1C[C@H](N)[C@H](O)[C@H](C)O1 [14-(N-piperidino)-daunomycin] | 0.1 (≈ 0.164 µM) | 87 | 71 | 58 | 24 | 0.08 (≈ 0.131 µM) | 0 | 0 | 0 | 0 | 0/10 | 0/10 | 100 | 0 | 0/10 | 0/10 | 140 | 20 | 2/10 | 0/10 | activity at 0.0062 µg/mL [2, 8]: 100%; activity at 0.025 µg/mL [2, 9]: 89%; activity at 0.1 µg/mL [2, 10]: 42%; activity at 0.4 µg/mL [2, 10]: 0%; mortality ([3]; 12.5 mg./kg. i.p.): 0%; mortality ([3]; 25 mg./kg. i.p.): 0%; mortality ([3]; 50 mg./kg. i.p.): 40%; T/C (median survival time, % over untreated controls) (ascites Sarcoma 180; [11]): 103%; T/C (median survival time, % over untreated controls) (ascites Sarcoma 180; [14]): 200%; % LTS (ascites Sarcoma 180; [14]): 20%; LTS (Long Term Survivors after 60 days) (ascites Sarcoma 180; [14]): 2/10; Toxic Deaths (ascites Sarcoma 180; 12.5 mg./kg. i.p.): 0/10; T/C (median survival time, % over untreated controls) (ascites Sarcoma 180; [15]): 218%; % LTS (ascites Sarcoma 180; [15]): 20%; LTS (Long Term Survivors after 60 days) (ascites Sarcoma 180; [15]): 2/10; Toxic Deaths (ascites Sarcoma 180; 25 mg./kg. i.p.): 0/10; T/C (median survival time, % over untreated controls) (ascites Sarcoma 180; [16]): 144%; % LTS (ascites Sarcoma 180; [16]): 20%; LTS (Long Term Survivors after 60 days) (ascites Sarcoma 180; [16]): 2/10; Toxic Deaths (ascites Sarcoma 180; 50 mg./kg. i.p.): 4/10
COc1cccc2c1C(=O)c1c(O)c3c(c(O)c1C2=O)C[C@@](O)(C(=O)CN1CCN(C)CC1)C[C@@H]3O[C@H]1C[C@H](N)[C@H](O)[C@H](C)O1 [14-[N-(N'-methyl)-piperazino]-daunomycin] | 0.09 (≈ 0.144 µM) | 67 | 64 | 56 | 23 | 0.011 (≈ 0.0176 µM) | 0 | 0 | 0 | 0 | 0/10 | 0/10 | 103 | 0 | 0/10 | 0/10 | 116 | 0 | 0/10 | 0/10 | activity at 0.0062 µg/mL [2, 8]: 60%; activity at 0.025 µg/mL [2, 9]: 35%; activity at 0.1 µg/mL [2, 10]: 19%; activity at 0.4 µg/mL [2, 10]: 0%; mortality ([3]; 12.5 mg./kg. i.p.): 10%; mortality ([3]; 25 mg./kg. i.p.): 0%; mortality ([3]; 50 mg./kg. i.p.): 50%; T/C (median survival time, % over untreated controls) (ascites Sarcoma 180; [11]): 119%; T/C (median survival time, % over untreated controls) (ascites Sarcoma 180; [14]): 167%; % LTS (ascites Sarcoma 180; [14]): 30%; LTS (Long Term Survivors after 60 days) (ascites Sarcoma 180; [14]): 3/10; Toxic Deaths (ascites Sarcoma 180; 12.5 mg./kg. i.p.): 1/10; T/C (median survival time, % over untreated controls) (ascites Sarcoma 180; [15]): 226%; % LTS (ascites Sarcoma 180; [15]): 30%; LTS (Long Term Survivors after 60 days) (ascites Sarcoma 180; [15]): 3/10; Toxic Deaths (ascites Sarcoma 180; 25 mg./kg. i.p.): 0/10; T/C (median survival time, % over untreated controls) (ascites Sarcoma 180; [16]): 130%; % LTS (ascites Sarcoma 180; [16]): 10%; LTS (Long Term Survivors after 60 days) (ascites Sarcoma 180; [16]): 1/10; Toxic Deaths (ascites Sarcoma 180; 50 mg./kg. i.p.): 5/10
COc1cccc2c1C(=O)c1c(O)c3c(c(O)c1C2=O)C[C@@](O)(C(=O)CO)C[C@@H]3O[C@H]1C[C@H](N)[C@H](O)[C@H](C)O1 [Adriamycin, reference compound] | 0.01 (≈ 0.0184 µM) | – | – | – | – | – | 0 | 0 | 10 | 16 | 5/30 | 0/30 | 177 | 45 | 13/29 | 0/29 | 200 | 19 | 9/47 | 5/47 | activity at 0.0062 µg/mL (Mouse Embryo Fibroblasts): 61%; activity at 0.0125 µg/mL (Mouse Embryo Fibroblasts): 42%; activity at 0.025 µg/mL (Mouse Embryo Fibroblasts): 37%; activity at 0.0062 µg/mL ([2]; read-out: MSV-M No. of foci): 46%; activity at 0.0125 µg/mL ([2]; read-out: MSV-M No. of foci): 24%; activity at 0.025 µg/mL ([2]; read-out: MSV-M No. of foci): 0%; IC50 [2]: 0.005 µg/mL (≈ 0.0092 µM); mortality ([3]; 10 mg./kg. i.p.): 20%; % LTS (ascites Sarcoma 180; [17]): 0%; LTS (Long Term Survivors after 60 days) (ascites Sarcoma 180; [17]): 0/10; Toxic Deaths (ascites Sarcoma 180; 10 mg./kg. i.p.): 2/10
COc1cccc2c1C(=O)c1c(O)c3c(c(O)c1C2=O)C[C@@](O)(C(=O)CN1CCN(CCO)CC1)C[C@@H]3O[C@H]1C[C@H](N)[C@H](O)[C@H](C)O1 [14-[N-(N'-hydroxyethyl)piperazino]-daunomycin] | 0.08 (≈ 0.122 µM) | 67 | 64 | 52 | 31 | 0.045 (≈ 0.0686 µM) | 0 | 0 | 0 | 0 | 0/10 | 0/10 | 103 | 0 | 0/10 | 0/10 | 103 | 10 | 1/10 | 0/10 | activity at 0.0062 µg/mL [2, 8]: 71%; activity at 0.025 µg/mL [2, 9]: 64%; activity at 0.1 µg/mL [2, 10]: 43%; activity at 0.4 µg/mL [2, 10]: 2%; mortality ([3]; 12.5 mg./kg. i.p.): 0%; mortality ([3]; 25 mg./kg. i.p.): 0%; mortality ([3]; 50 mg./kg. i.p.): 30%; T/C (median survival time, % over untreated controls) (ascites Sarcoma 180; [11]): 103%; T/C (median survival time, % over untreated controls) (ascites Sarcoma 180; [14]): 152%; % LTS (ascites Sarcoma 180; [14]): 0%; LTS (Long Term Survivors after 60 days) (ascites Sarcoma 180; [14]): 0/10; Toxic Deaths (ascites Sarcoma 180; 12.5 mg./kg. i.p.): 0/10; T/C (median survival time, % over untreated controls) (ascites Sarcoma 180; [15]): 222%; % LTS (ascites Sarcoma 180; [15]): 10%; LTS (Long Term Survivors after 60 days) (ascites Sarcoma 180; [15]): 1/10; Toxic Deaths (ascites Sarcoma 180; 25 mg./kg. i.p.): 0/10; T/C (median survival time, % over untreated controls) (ascites Sarcoma 180; [16]): 152%; % LTS (ascites Sarcoma 180; [16]): 0%; LTS (Long Term Survivors after 60 days) (ascites Sarcoma 180; [16]): 0/10; Toxic Deaths (ascites Sarcoma 180; 50 mg./kg. i.p.): 3/10

From patent US4024224A, “14-Aminodaunomycins, their preparation and use” (priority 1974, dated 1977)
